Data taken from patent US10209240B2, “Predicting human developmental toxicity of pharmaceuticals using human stem-like cells and metabolomic ratios” (STEMINA BIOMARKER DISCOVERY, INC., priority 2012, dated 2019).
Read-outs that look alike come from different tables or passages of the source. Marks after values point to notes of the source that are not given here.

What was measured:
WA09 hES cells [1] = assay: Phase 2 targeted biomarker assay, ornithine/cystine ratio, 9-point dose response
Text: Undifferentiated hES Cell Line Maintenance (Phases 1 and 2). WA09 hES cells were obtained from the WiCell Research Institute (Madison, Wis.) and were maintained in feeder free conditions using mTeSR1 media (StemCell Technologies, Inc., Vancouver, BC, Canada) on hESC-qualified Matrigel (BD Biosciences, San Jose, Calif.) coated 6-well plates. To maintain the undifferentiated stem cell population, differentiated colonies were removed daily through aspiration and media was replaced. Additionally, the hES cells were only used in experiments up to passage 40 and were karyotyped approximately every 10 passages to minimize and monitor the potential for genetic instability. hES cells were passaged at 90-95% confluency (approximately every 7 days) using Versene (Life Technologies, Grand Island, N.Y.). Cell cultures were maintained at 37° C. under 5% CO2.
96-well hES Cell Plating (Phases 1 and 2). All experimental treatments were carried out in 96-well plates. To minimize plating variability and increase reproducibility, hES cells were plated as a single cell suspension and maintained in an undifferentiated state during compound exposure. Prior to plating in the 96-well plates, hES cells were removed from a 6-well plate using TrypLE (Life Technologies). The cells were washed with DMEM/F12 (Life Technologies) and resuspended in mTeSR1 containing 10 μM Y27632 Rho-associated kinase (ROCK) inhibitor (Merck KGaA/Calbiochem, Darmstadt, Germany). The ROCK inhibitor is added to the plating media to increase plating efficiency by decreasing dissociation-induced apoptosis. The inner 60 wells of hESC-qualified Matrigel coated 96-well plates were seeded at a density of 100,000 cells per well. The outer wells of the plate contained an equal volume media to minimize differences in humidity across the plate. Compound exposure began 24 hours after plating.
(§1) Phase 2 hES Cell Compound Exposure. […] The standard compound exposure levels used for most compounds were nine, 3-fold dilutions ranging from 0.04 μM-300 μM (FIG. 1B). […] The stock solution was diluted 1:1000 in mTeSR1 media and subsequent dilutions were performed in mTeSR1 containing 0.1% DMSO such that the final concentration of DMSO was 0.1% in all treatments. hES cells were treated for 72 hours and spent media from the last 24-hour treatment period was collected and added to acetonitrile containing ^13C6 labeled arginine (Cambridge Isotope Laboratories, Andover, Md.) as described under Phase 1. Spent media samples were stored at −80° C. until prepared for LC-HRMS analysis. Cell viability was assessed using the CellTiter-Fluor Cell Viability Assay. A quality control step was included with criteria that the CV of the measured viability RFU of the DMSO control cells could not exceed 10% for a plate to undergo LC-HRMS analysis. A dose response curve was fit to the reference treatment (0.1% DMSO treated control cells) normalized data (Viability RFUTrt X/Viability RFUDMSO) using a four-parameter log-logistic model with the R package “drc” (Ritz and Streibig, 2005, J Statistical Software; 12:1-22).
Sample Preparation (Phases 1 and 2). High molecular weight constituents (>10 KDa) of the spent media samples were removed using a Millipore Multiscreen Ultracel-10 filter plate (EMD Millipore, Billerica, Mass.). Prior to sample filtration, the filter plate was washed with 0.1% NaOH to remove a known contaminant polymer. The plate was then rinsed twice with HPLC-grade water to remove residual polymers and NaOH. Spent media samples were added to the washed filter plate. In Phase 1, samples were spiked with ^13C6 labeled arginine. Samples were centrifuged at 2,000×g at 4° C. for 200 minutes. The filtrate was collected and concentrated overnight in a Savant High Capacity Speedvac Plus Concentrator.

WA09 hES cells [2] = system: WA09 hES cells
Description: Phase I hES Cell Compound Exposure. hES cells were treated with a test compound at a single concentration equivalent to the compound's published therapeutic Cmax. […] This was done to ensure that enough cells were present at the time of sample collection to provide a signal for LC-HRMS analysis. For test compound exposure, all compound stock solutions, with the exception of valproic acid, were made with DMSO (Sigma-Aldrich). […] Each 96-well plate included media controls with and without test compound, 0.1% DMSO solvent control cells and cells exposed to a single concentration of eight different test compounds (FIG. 1A). Media controls were included on each plate to assess the impact of test compound on the sample matrix. hES cells were exposed to the test compound for 72 hours, with media and test compound replacement every 24 hours. Cells were monitored throughout the treatment period to ensure that no differentiation was occurring. After 72 hours of treatment, the spent media from the final 24-hour treatment period was collected and added to acetonitrile (Sigma-Aldrich, final acetonitrile concentration 40%), to halt metabolic processes and precipitate proteins from solution. Individual wells from each 96-well plate were collected and analyzed as separate samples. These samples were then stored at −80° C. until prepared for LC-HRMS analysis. Cell viability was assessed using the CellTiter-Fluor Cell Viability Assay as per the manufacturer's instructions (Promega, Madison, Wis.). Quality control parameters were set such that if the coefficient of variation (CV) for the viability relative fluorescent units (RFU) of the 6 cellular samples in a treatment exceeded 10% and no outliers were identified using the Grubb's test (see the worldwide web at graphpad.com/quickcalcs/Grubbs1.cfm), analysis was halted for that compound and the cell culture experiment was repeated. If outliers were present, the outlier sample was removed from analysis. If the CV for the DMSO control cell samples on a plate were outside of the quality control parameters, the entire plate was repeated. hES cell exposure to each of the 23 compounds was replicated a total of nine times.
as §1
Phase 2 Prediction of Developmental Toxicity Potential. […] FIG. 2 illustrates how the assay is applied in this situation. A test compound is considered to be teratogenic at the exposure level where the o/c ratio exceeds the teratogenicity threshold (red box, FIG. 2).

[3] = cited from earlier work
Humans = settings: cited from earlier work; for Humans (known human developmental toxicity): training and test set; for Known Effect: validation and test set treatments of Example 2
Rodent = settings: cited from earlier work; for Rodent in vivo test results: Embryotoxic: embryotoxic effect in the absence of teratogenic effects and maternal toxicity
Rabbit = settings: cited from earlier work
zebrafish = settings: training and test set; weak/moderate and strong teratogens both labeled teratogen; cited from earlier work
[4] = summarized from TERIS and Briggs et al. 2011, cited from earlier work; for Preclinical in vivo developmental effects: application set compounds
rat whole embryo = settings: cited from earlier work
hES cells [5] = assay: devTOX computational model predictions (Version 2.0, Version 2.1) from hES cell metabolomics; type: cell-based, human; settings: single dose per treatment (Dose column)
Text: The selection process weighted the predictive capacity of a feature, overall intensity, and peak shape to identify very well behaved features/metabolites that could be measured by targeted LC-MS or even by other detection systems.
(§2) This simplified model is based on a ratio of the reference treatment (DMSO) normalized values of ADMA and cystine.

hES cells [6] = assay: ADMA/cystine ratio simplified predictive model in hES cell spent media; type: cell-based, human; settings: single dose per treatment; ratios less than 0.9 indicate teratogenicity
Text: as §2
The X-axis is the reference normalized ratio of ADMA/Cystine. The y-axis is the training set of pharmaceuticals. Grey color with triangle glyphs represents teratogens and black color with circle glyphs represents non-teratogens. Each glyph point represents the media value of an independent experimental block (6 reps per block). The crosshair glyphs mark the sample medians. In FIG. 9, grey vertical line is threshold of teratogenicity, grey horizontal lines are the median absolute deviations, and black vertical line designates 1.0. The arrows at the bottom indicate the values used for differentiation of teratogens and nonteratogens, utilizing a cut off of 0.9 (grey line).

[7] = system: mouse embryonic stem cell; settings: cited from earlier work
[8] = test set, therapeutic peak plasma in vivo concentration, human
[9] = application set, made using the therapeutic Cmax when available
[10] = application set, peak plasma concentration in humans
[11] = training set, therapeutic peak plasma in vivo concentration, human
[12] = training and test set, weak/moderate and strong teratogens both labeled teratogen

Structure (SMILES)	O/C Ratio Prediction (WA09 hES cells [1])	Targeted Biomarker Assay prediction (WA09 hES cells [1])	Teratogenicity Potential (μM) O/C Ratio (WA09 hES cells [1]; human, 72 h) [µM]	Cmax [3, 8] [µM]	Humans (known human developmental toxicity) (Humans)	Rodent prediction (Rodent; training and test set)	Rabbit prediction (Rabbit; training and test set)	ZET prediction (zebrafish)	Preclinical in vivo and known human developmental effects ([4]; test set compounds)	Teratogenicity Potential (μM) Cell Viability (WA09 hES cells [2]; human, 72 h) [µM]	Rodent prediction (Rodent; application set)	Rabbit prediction (Rabbit; application set)	WEC prediction (rat whole embryo; application set)	Preclinical in vivo developmental effects [4]	Viability Prediction (WA09 hES cells [2])	WEC prediction (rat whole embryo; [12])	also measured
S=P(N1CC1)(N1CC1)N1CC1 [ThioTEPA]	TER	TER	0.04	7	TER	TER	TER	TER^v	Skeletal, embryo toxicity^c	–	–	–	–	–	–	–	Teratogenicity Potential (μM) Cell Viability (WA09 hES cells [2]; test set, interpolated concentration where cell viability dose response curve crosses teratogenicity threshold 0.88, 72 hours): 0.5 µM; Viability Prediction (WA09 hES cells [2]; test set, teratogenicity potential scored against therapeutic Cmax): TER
CN(CCOc1ccc(CC2SC(=O)NC2=O)cc1)c1ccccn1 (stereo not shown) [Rosiglitazone]	–	–	18.9	–	–	–	–	–	–	21.8	TER	TER	NON^h	Embryo toxicity^c	–	–	Targeted Biomarker Assay prediction (WA09 hES cells [1]; [9]): NON; Cmax [3, 10]: 1.7 µM; Rodent in vivo test results: Embryotoxic (Rodent; application set): +
N[C@@H](Cc1cc(I)c(Oc2cc(I)c(O)c(I)c2)c(I)c1)C(=O)O [Levothyroxine]	NON	NON	43.5	–	NON	NON	NON	–	–	>300	–	–	–	–	NON	–	Model Predictions Version 2.0 (hES cells [5]): Ter; Model Predictions Version 2.1 (hES cells [5]): Non; Model Predictions ADMA/Cystine (hES cells [6]): Non; Cmax [3, 11]: 0.14 µM; Known Effect (Humans): Non; Preclinical in vivo and known human developmental effects ([4]; training set compounds): None
NC(=O)c1ccc(N)nc1 [6-Aminonicotinamide]	–	–	–	–	–	–	–	–	–	–	TER	TER	TER^d	Craniofacial	–	–	Teratogenicity Potential (μM) O/C Ratio (WA09 hES cells [1]; application set, interpolated concentration where o/c ratio dose response curve crosses teratogenicity threshold 0.88, 72 hours): <0.04 µM; Targeted Biomarker Assay prediction (WA09 hES cells [1]; [9]): TER; Teratogenicity Potential (μM) Cell Viability (WA09 hES cells [2]; application set, interpolated concentration where cell viability dose response curve crosses teratogenicity threshold 0.88, 72 hours): 24.5 µM; Rodent in vivo test results: Teratogenic (Rodent; application set, structural malformations in the absence of maternal toxicity): +^d; mEST prediction ([7]; application set): TER^c
CC(=O)Nc1ccc(O)cc1 [Acetaminophen]	NON	NON	>300	116	NON	NON	–	NON^e	None	>300	–	–	–	–	NON	TER^k	–
CS(=O)(=O)OCCCCOS(C)(=O)=O [Busulfan]	TER	TER	0.6	–	TER	TER	TER	–	–	3	–	–	–	–	TER	TER^j	Cytotoxicity at the Cmax exposure level (WA09 hES cells [2]; human, 72 h): greater than 30%; Model Predictions Version 2.0 (hES cells [5]): Ter; Model Predictions Version 2.1 (hES cells [5]): Ter; Model Predictions ADMA/Cystine (hES cells [6]): Ter; Cmax [3, 11]: 49.6 µM; Known Effect (Humans): Ter; mEST prediction [7, 12]: TER^i; Preclinical in vivo and known human developmental effects ([4]; training set compounds): Craniofacial, limb, embryo
CNCCC(Oc1ccc(C(F)(F)F)cc1)c1ccccc1 (stereo not shown) [Fluoxetine]	–	NON	25.1	–	–	–	–	–	–	23	TER	NON	NON^f,g	Embryo toxicity^c	–	–	Cmax [3, 10]: 0.04 µM; Rodent in vivo test results: Embryotoxic (Rodent; application set): +; mEST prediction ([7]; application set): TER^e
CC(C)(S)[C@@H](N)C(=O)O [D-Penicillamine]	TER	TER	<0.04	13.4	TER	TER	–	NON^d	Skeletal	>300	–	–	–	–	NON	NON^f	Classification by o/c ratio in the targeted biomarker assay (WA09 hES cells [1]): correctly classify; mEST prediction [7, 12]: NON^m
